According to patent US20250136593A1, “DEGRADATION AGENT AND USE THEREOF” (HITGEN INC., priority 2021, published 2025):

Molecular target: ternary complex between BCL-XL and CRBN-DDB1 (Homo sapiens, UniProt Q07817+Q96SW2)
Assay: Compound-induced formation of ternary complex between BCL-XL and CRBN-DDB1 by AlphaLISA
Format: biochemical
Design: key: the number of + indicates the intensity of AlphaLISA peak signal; ++: the number of + indicates the intensity of AlphaLISA peak signal; +++: the number of + indicates the intensity of AlphaLISA peak signal; ++++: the number of + indicates the intensity of AlphaLISA peak signal; +++++: the number of + indicates the intensity of AlphaLISA peak signal
Details: peak signal; 60 nM Strep-BCL-XL and 60 nM His-CRBN/DDB1
Protocol: Experimental Example 4, Detection of Compound-Induced Formation of Ternary Complex Between BCL-XL and CRBN-DDB1 by AlphaLISA Method
Na2HPO4(Sigma), NaH2PO4(Sigma), sodium chloride (Sigma), Tween-20 (Sigma), AlphaLISA®Nikel Chelate Acceptor beads (PerkinElmer), Strep-Tactin® Alpha Donor beads (PerkinElmer), Assay plate (Corning), Strep-BCl-XL (HitGen), His-CRBN/DDB1 (HitGen).
DMSO was used to dissolve the dry powder of the test compound to obtain a 10.00 mM solution. The instrument ECHO was used to perform gradient dilution of the compound, which was then added to a 384-well reaction plate (Corning, Cat #3824), so that the final concentration of DMSO in the entire reaction system (10.0 μL) was less than 1%, and the same amount of DMSO was added and used as a control.
Strep-BCl-XL and His-CRBN/DDB1 proteins were dissolved in buffer (10 mM NaH2PO4, 40 mM Na2HPO4, 150 mM sodium chloride, 0.03% Tween20, pH=7.4) to obtain a protein mixture of 60 nM Strep-BCL-XL and 60 nM His-CRBN/DDB1, the protein mixture (5ul/well) was added to the 384-well plate in which the compound had been added, and incubated at room temperature for 30 minutes, then 5 μl of a detection mixture with 50 μg/ml AlphaLISA®Nikel Chelate Acceptor beads and 50 μg/ml Strep-Tactin® Alpha Donor beads was added, and incubated at room temperature for 2 hours; and then a microplate reader was used to detect AlphaLISA signal.
Fifth order polynomial or Sixth order polynomial in Polynomial of Graphpad 6.0 was used for data fitting.

ternary complex between BCL-XL and CRBN-DDB1, sequence (Q07817 whole entry): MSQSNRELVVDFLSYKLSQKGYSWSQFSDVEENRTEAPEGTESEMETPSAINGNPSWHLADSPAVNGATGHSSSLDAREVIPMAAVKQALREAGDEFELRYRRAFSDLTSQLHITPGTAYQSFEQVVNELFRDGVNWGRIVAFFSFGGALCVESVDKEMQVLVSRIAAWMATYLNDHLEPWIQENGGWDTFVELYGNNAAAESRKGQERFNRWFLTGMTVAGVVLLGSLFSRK
ternary complex between BCL-XL and CRBN-DDB1, sequence (Q96SW2 whole entry): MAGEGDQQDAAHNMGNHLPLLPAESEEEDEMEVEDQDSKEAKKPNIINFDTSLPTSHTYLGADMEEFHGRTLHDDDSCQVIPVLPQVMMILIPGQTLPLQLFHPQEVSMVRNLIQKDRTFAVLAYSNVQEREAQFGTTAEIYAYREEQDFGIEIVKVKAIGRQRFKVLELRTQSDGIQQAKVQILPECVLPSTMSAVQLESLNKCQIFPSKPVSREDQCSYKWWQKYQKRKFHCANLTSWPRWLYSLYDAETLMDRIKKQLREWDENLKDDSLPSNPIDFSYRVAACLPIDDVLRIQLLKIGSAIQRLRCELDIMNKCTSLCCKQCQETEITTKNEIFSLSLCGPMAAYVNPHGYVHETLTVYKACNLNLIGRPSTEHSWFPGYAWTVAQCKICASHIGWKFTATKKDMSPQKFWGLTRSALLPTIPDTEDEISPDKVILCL
ternary complex between BCL-XL and CRBN-DDB1, sequence (Q16531 whole entry partner): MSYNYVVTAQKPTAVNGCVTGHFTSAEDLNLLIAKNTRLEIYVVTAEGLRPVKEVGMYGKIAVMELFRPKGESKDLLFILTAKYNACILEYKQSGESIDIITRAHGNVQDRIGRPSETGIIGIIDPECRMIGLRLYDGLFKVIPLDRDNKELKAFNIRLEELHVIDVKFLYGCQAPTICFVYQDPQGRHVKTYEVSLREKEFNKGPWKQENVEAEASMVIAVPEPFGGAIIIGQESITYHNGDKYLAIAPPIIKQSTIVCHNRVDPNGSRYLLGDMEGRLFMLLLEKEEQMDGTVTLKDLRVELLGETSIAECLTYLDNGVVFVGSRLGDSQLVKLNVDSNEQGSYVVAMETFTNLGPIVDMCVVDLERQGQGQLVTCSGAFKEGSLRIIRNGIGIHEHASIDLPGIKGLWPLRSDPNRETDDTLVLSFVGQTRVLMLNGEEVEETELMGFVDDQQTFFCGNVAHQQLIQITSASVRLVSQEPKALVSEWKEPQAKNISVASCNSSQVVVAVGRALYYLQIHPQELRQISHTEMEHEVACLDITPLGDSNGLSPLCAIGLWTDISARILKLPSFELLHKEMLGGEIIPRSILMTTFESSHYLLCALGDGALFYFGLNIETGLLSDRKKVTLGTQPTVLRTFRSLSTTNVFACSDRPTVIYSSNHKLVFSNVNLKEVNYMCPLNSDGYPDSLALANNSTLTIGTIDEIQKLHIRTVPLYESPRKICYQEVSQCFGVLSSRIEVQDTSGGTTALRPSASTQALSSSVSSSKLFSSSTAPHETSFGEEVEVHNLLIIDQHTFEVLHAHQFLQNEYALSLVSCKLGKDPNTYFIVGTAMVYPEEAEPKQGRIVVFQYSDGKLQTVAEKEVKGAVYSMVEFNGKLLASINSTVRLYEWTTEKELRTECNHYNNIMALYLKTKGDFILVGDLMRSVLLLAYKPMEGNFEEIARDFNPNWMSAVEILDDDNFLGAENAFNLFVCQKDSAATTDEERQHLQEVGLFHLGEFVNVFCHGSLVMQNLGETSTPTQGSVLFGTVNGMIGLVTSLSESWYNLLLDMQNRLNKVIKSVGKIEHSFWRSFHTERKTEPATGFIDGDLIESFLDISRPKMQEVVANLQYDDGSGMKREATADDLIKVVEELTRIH

SMILES	AlphaLISA signal (PROTAC ternary complex signal intensity)
C=Cc1cc(-c2nc3c(c(NC)n2)CCN(C(=O)c2ccc(COc4ccc(C#CCN(C)CCCCOc5cccc6c5C(=O)N(C5CCC(=O)NC5=O)C6=O)cc4)cc2)C3)cnc1C=C (stereo not drawn) [Compound B2]	+
C/C=c1/cc(-c2nc3c(c(NC)n2)CCN(C(=O)c2ccc(COc4ccc(C#CCN(C)CCCCCOc5cccc6c5C(=O)N(C5CCC(=O)NC5=O)C6=O)cc4)cc2)C3)cn/c1=C/C (stereo not drawn) [Compound B3]	+
C=Cc1cc(-c2nc3c(c(NC)n2)CCN(C(=O)c2ccc(COc4ccc(C#CCN5CCN(CCCCCCNc6cccc7c6C(=O)N(C6CCC(=O)NC6=O)C7=O)CC5)cc4)cc2)C3)cnc1C=C (stereo not drawn) [Compound C2-4]	++++
C=Cc1cc(-c2nc3c(c(NC)n2)CCN(C(=O)c2ccc(COc4ccc(C#CCN5CCN(CCCCCCCCNc6cccc7c6C(=O)N(C6CCC(=O)NC6=O)C7=O)CC5)cc4)cc2)C3)cnc1C=C (stereo not drawn) [Compound C2-5]	+++
C=Cc1cc(-c2ncc3c(n2)CN(C(=O)c2ccc(/C=C/c4ccc(C#CCN5CCN(CCCCCCOc6cccc7c6C(=O)N(C6CCC(=O)NC6=O)C7=O)CC5)cc4)cc2)CC3)cnc1C=C (stereo not drawn) [Compound C3-3]	+
C=Cc1cc(-c2ncc3c(n2)CN(C(=O)c2ccc(COc4ccc(C#CCN5CCN(CCCCCOc6cccc7c6C(=O)N(C6CCC(=O)NC6=O)C7=O)CC5)cc4)cn2)CC3)cnc1C=C (stereo not drawn) [Compound C3-10]	++
C=Cc1cc(-c2ncc3c(n2)CN(C(=O)c2ccc(COc4ccc(C#CCN5CCN(CCCCCOc6cccc7c6C(=O)N(C6CCC(=O)NC6=O)C7=O)CC5)nc4)cc2)CC3)cnc1C=C (stereo not drawn) [Compound C3-13]	+

Test system: MOLT-4 cells
Assay: Inhibitory activity on MOLT4 cell proliferation by Cell Titer-Glo method
Format: cell-based
Details: Homo sapiens, 72 hours incubation, read-out: IC50 concentration for inhibiting MOLT-4 cells
Protocol: Experimental Example 5, Evaluation Experiment of Inhibitory Activity of Compound on MOLT4 Cell Proliferation by Cell Titer-Glo Method
RPMI medium modified (Hyclone), FBS (Corning), Dimethyl Sulfoxide, P/S, CellTiter-Gbo Luminescent Cell Viability Assay (Promega), MOLT-4 cell (ATCC).
MOLT-4 cells were cultured in monolayer in vitro in an incubator containing 5% CO2 air at 37° C. The culture medium was RPMI 1640 with 10% FBS and 1% P/S. 15 μL of MOLT4 cells, containing 5×10^4 cells per ml, was inoculated to a 384-well plate (Corning, 3707), 750 cells/well, and incubated at 37° C. and 5% CO2 for 30 minutes. Then the compound that had been diluted in advance was added, with a total of 9 concentration points, and 2 parallel repetitions for each concentration point. The cell growing group without adding the compound was used as a negative control (maximum signal control), and the culture medium group was used as a blank control (minimum signal control). At the same time, it was ensured that the final DMSO content in each reaction well was 0.1%. The compound and the cells were incubated in a cell culture incubator at 37° C., 5% CO2 for 3 days (72 hours).
The 384-well plate was taken out from the cell culture incubator and allowed to stand at room temperature, equilibrated for 20 to 30 minutes, and then 25 μl of Cell Titer-Glo detection reagent was added to each reaction well, lysed on a shaker for 2 minutes, incubated for 10 minutes, and BMG PHERAStar (Luminescence) was used for reading.
The inhibition rate was calculated based on the luminescence signals: the average value of the negative control (maximum signal control) and the blank control (minimum signal control) was first calculated, then the inhibition rates of the compound at different concentrations for the cells were calculated as follows:
The IC50 of the compound to inhibit cell activity was calculated by fitting with GraphPad Prism 6 using log(inhibitor) vs. response−Variable slope mode. The fitting equation was: Y=Bottom+(Top−Bottom)/(1+10^((LogIC50−X)*HillSlope)), wherein Y represented the inhibition rate and X represented the known compound concentration after Log.

SMILES	IC50
C/C=c1/cc(-c2ncc3c(n2)CN(C(=O)c2ccc(/C=C/c4ccc(C#CCN5CCN(CCCCCCc6cccc7c6CN(C6CCC(=O)NC6=O)C7=O)CC5)cc4)cc2)CC3)cn/c1=C/C (stereo not drawn) [Compound C1-2]	> 200 µM
C=Cc1cc(-c2ncc3c(n2)CN(C(=O)c2ccc(/C=C/c4ccc(C#CCN5CCN(CCCCc6ccc7c(c6)CN(C6CCC(=O)NC6=O)C7=O)CC5)cc4)cc2)CC3)cnc1C=C (stereo not drawn) [Compound C1-3]	1 to 10 µM
CNc1nc(-c2cnc3ccccc3c2)nc2c1CCN(C(=O)c1ccc(/C=C/c3ccc(C#CCN4CCN(CCCCCc5cccc6c5CN(C5CCC(=O)NC5=O)C6=O)CC4)cc3)cc1)C2 (stereo not drawn) [Compound C1-4]	1 to 10 µM
C=Cc1cc(-c2nc3c(c(NC)n2)CCN(C(=O)c2ccc(COc4ccc(C#CCN5CCN(CCCNc6cccc7c6C(=O)N(C6CCC(=O)NC6=O)C7=O)CC5)cc4)cc2)C3)cnc1C=C (stereo not drawn) [Compound C2-6]	1 to 10 µM
C=Cc1cc(-c2ncc3c(n2)CN(C(=O)c2ccc(/C=C/c4ccc(C#CCN5CCN(CCCCCOc6cccc7c6C(=O)N(C6CCC(=O)NC6=O)C7=O)CC5)nc4)cc2)CC3)cnc1C=C (stereo not drawn) [Compound C3-8]	> 200 µM
C=Cc1cc(-c2nc3c(c(NC)n2)CCN(C(=O)c2ccc(COc4ccc(C#CCN5CCN(CCCCCOc6cccc7c6C(=O)N(C6CCC(=O)NC6=O)C7=O)CC5)cc4)cn2)C3)cnc1C=C (stereo not drawn) [Compound C3-11]	100 to 200 µM
C=Cc1cc(-c2ncc3c(n2)CN(C(=O)c2ccc(COc4ccc(C#CCN5CCN(CCCCCOc6cccc7c6C(=O)N(C6CCC(=O)NC6=O)C7=O)CC5)cc4)nc2)CC3)cnc1C=C (stereo not drawn) [Compound C3-12]	50 to 100 µM
O=C1CCC(N2Cc3cc(C#CCCCN4CCN(CC#Cc5ccc(/C=C/c6ccc(C(=O)N7CCc8cnc(-c9cnc%10ccccc%10c9)nc8C7)cc6)cc5)CC4)ccc3C2=O)C(=O)N1 (stereo not drawn) [Compound D2-3]	> 200 µM
O=C1CCC(N2Cc3c(C#CCCCCN4CCN(CC#Cc5ccc(/C=C/c6ccc(C(=O)N7CCc8cnc(-c9cnc%10ccccc%10c9)nc8C7)cc6)cc5)CC4)cccc3C2=O)C(=O)N1 (stereo not drawn) [Compound D2-5]	100 to 200 µM
CNc1nc(-c2cnc3ccccc3c2)nc2c1CCN(C(=O)c1ccc(/C=C/c3ccc(C#CCN4CCN(CCCCC#Cc5cccc6c5CN(C5CCC(=O)NC5=O)C6=O)CC4)cc3)cc1)C2 (stereo not drawn) [Compound D2-7]	100 to 200 µM
O=C1CCC(c2cccc(C#CCCN3CCN(CC#Cc4ccc(OCC56CC(C(=O)N7CCc8cnc(-c9cnc%10ccccc%10c9)nc8C7)(C5)C6)cc4)CC3)c2)C(=O)N1 (stereo not drawn) [Compound D2-16]	1 to 10 µM
O=C1CCC(N2Cc3cc(C4CN(C5CCN(CC#Cc6ccc(OCC78CC(C(=O)N9CCc%10cnc(-c%11cnc%12ccccc%12c%11)nc%10C9)(C7)C8)cc6)CC5)C4)ccc3C2=O)C(=O)N1 (stereo not drawn) [Compound F1A-5]	1 to 10 µM
O=C1CCC(N2C(=O)c3ccc(N4CCN(CC5CCN(CC#Cc6ccc(OCC78CC(C(=O)N9CCc%10cnc(-c%11cnc%12ccccc%12c%11)nc%10C9)(C7)C8)cc6)CC5)CC4)cc3C2=O)C(=O)N1 (stereo not drawn) [Compound F1B-4]	1 to 10 µM
O=C1CCC(N2Cc3cc(CN4CC(N5CCN(CC#Cc6ccc(/C=C/c7ccc(C(=O)N8CCc9cnc(-c%10cnc%11ccccc%11c%10)nc9C8)cc7)cc6)CC5)C4)ccc3C2=O)C(=O)N1 (stereo not drawn) [Compound F2-2]	50 to 100 µM
O=C1CCC(N2Cc3cc(N4CCC(N5CCN(CC#Cc6ccc(/C=C/c7ccc(C(=O)N8CCc9cnc(-c%10cnc%11ccccc%11c%10)nc9C8)cc7)cc6)CC5)CC4)ccc3C2=O)C(=O)N1 (stereo not drawn) [Compound F2-3]	1 to 10 µM
O=C1CCC(N2Cc3c(CCCN4CC(N5CCN(CC#Cc6ccc(/C=C/c7ccc(C(=O)N8CCc9cnc(-c%10cnc%11ccccc%11c%10)nc9C8)cc7)cc6)CC5)C4)cccc3C2=O)C(=O)N1 (stereo not drawn) [Compound F2-5]	> 200 µM
O=C1CCC(N2Cc3c(CCCN4CCC(N5CCN(CC#Cc6ccc(/C=C/c7ccc(C(=O)N8CCc9cnc(-c%10cnc%11ccccc%11c%10)nc9C8)cc7)cc6)CC5)CC4)cccc3C2=O)C(=O)N1 (stereo not drawn) [Compound F2-6]	100 to 200 µM
CNc1nc(-c2cnc3ccccc3c2)nc2c1CCN(C(=O)c1ccc(/C=C/c3ccc(C#CCN4CCN(C5CCN(c6ccc7c(c6)CN(C6CCC(=O)NC6=O)C7=O)CC5)CC4)cc3)cc1)C2 (stereo not drawn) [Compound F2-7]	1 to 10 µM
O=C1CCC(N2Cc3cc(N4CCC(N5CCN(CC#Cc6ccc(OCC78CC(C(=O)N9CCc%10cnc(-c%11cnc%12ccccc%12c%11)nc%10C9)(C7)C8)cc6)CC5)CC4)ccc3C2=O)C(=O)N1 (stereo not drawn) [Compound F2-10]	1 to 10 µM
O=C1CCC(N2C(=O)c3cccc(N4CC5(CC(N6CCN(CC#Cc7ccc(/C=C/c8ccc(C(=O)N9CCc%10cnc(-c%11cnc%12ccccc%12c%11)nc%10C9)cc8)cc7)CC6)C5)C4)c3C2=O)C(=O)N1 (stereo not drawn) [Compound F3A-1]	> 200 µM
O=C1CCC(N2Cc3c(CN4CC5(CC(N6CCN(CC#Cc7ccc(/C=C/c8ccc(C(=O)N9CCc%10cnc(-c%11cnc%12ccccc%12c%11)nc%10C9)cc8)cc7)CC6)C5)C4)cccc3C2=O)C(=O)N1 (stereo not drawn) [Compound F3A-2]	100 to 200 µM
O=C1CCC(N2Cc3c(cccc3N3CC4(CC(CN5CCN(CC#Cc6ccc(/C=C/c7ccc(C(=O)N8CCc9cnc(-c%10cnc%11ccccc%11c%10)nc9C8)cc7)cc6)CC5)C4)C3)C2=O)C(=O)N1 (stereo not drawn) [Compound F3A-4]	100 to 200 µM
CNc1nc(-c2cnc3ccccc3c2)nc2c1CCN(C(=O)c1ccc(/C=C/c3ccc(C#CCN4CCN(C(=O)CCCCCC(=O)N[C@H](C(=O)N5C[C@H](O)C[C@H]5C(=O)NCc5ccc(-c6scnc6C)cc5)C(C)(C)C)CC4)cc3)cc1)C2 [Compound G1-3]	> 200 µM
